According to patent publication US20240109934A1, “ANTIBIOTICS WITH IMPROVED DRUG RESISTANCE PROFILE” (priority 2021, published 2024):
≈ marks a conversion by molar mass, not a printed value. Where two headings read alike, the source gives them in different places.

Tests used:
S. aureus ATCC 29213 [1] = assay: MIC by micro-dilution broth method (CLSI); format: cell-based; details: for Antibacterial activity relative to FA: S. aureus ATCC 29213 MIC; for MIC: Staphylococcus aureus, ATCC29213, WT S. aureus ATCC 29213, n = 3, read-out: MIC Without Human Serum
S. aureus 29213 = assay: MIC shift with 50% human serum; format: cell-based; details: S. aureus 29213, 50% human serum vs none
Procedure: Antimicrobial Susceptibility Tests. Susceptibility testing was performed in biological triplicate, using the micro-dilution broth method as outlined by the Clinical and Laboratory Standards Institute. […] Human serum (Ultrafiltrate, unspecified gender, 30K Dalton membrane filtered) was purchased from BioIVT (Hicksville, NY).

[2] = Mouse liver microsome stability assay; format: in vitro ADME; details: 3 h at 37° C., LC-MS/MS, ± SEM of 3 biological replicates
Procedure: Mouse Liver Microsome Stability Assay. A mixture of PBS (pH 7.4), NADPH regenerating system solution A (Corning Life Sciences), and NADPH regenerating system solution B (Corning Life Sciences) was incubated at 37° C. in a shaking incubator for 5 min. Next, compound was added in DMSO (final concentration 50 μM, 0.5% DMSO) before ice-cold mouse liver microsomes (Thermo Fisher, male CD-1 mice, pooled) were added (final protein concentration of 1 mg/mL). An aliquot was immediately removed, quenched with an equal volume of 100 μM internal standard and centrifuged at 13,000 rcf for 3 min. The reactions were incubated at 37° C. in a shaking incubator for 3 h. A second aliquot was removed and quenched. Samples were analyzed with the 5500 QTRAP LC/MS/MS system (Sciex, Framingham, MA) in Metabolomics Lab of Roy J. Carver Biotechnology Center, University of Illinois at Urbana-Champaign. Software Analyst 1.6.2 was used for data acquisition and analysis. The 1200 series HPLC system (Agilent Technologies, Santa Clara, CA) includes a degasser, an autosampler, and a binary pump. The LC separation was performed on an Agilent Sb-Aq column (4.6×50 mm, […]) with mobile phase A (0.1% formic acid in water) and mobile phase B (0.1% formic acid in acetonitrile). The flow rate was 0.3 mL/min. The linear gradient was as follows: 0-3 min, 100% A; 10-16 min, 5% A; 16.5-22 min, 100% A. The autosampler was set at 10° C. The injection volume was 1 μL. Mass spectra were acquired under both positive (ion spray voltage was +5500 V) and negative (ion spray voltage was −4500 V) electrospray ionization (ESI). The source temperature was 450° C. The curtain gas, ion source gas 1, and ion source gas 2 were 33, 65, and 60 psi, respectively. Multiple reaction monitoring (MRM) was used for quantitation.

S. aureus ATCC 29213 [3] = assay: Resistance frequency, large inoculum method; format: cell-based
Procedure: Selection of Resistant Mutants. Resistant mutants were selected via the large inoculum method. Briefly, S. aureus ATCC 29213 (1×10^9 CFU) were plated on 100 mm plates of LB agar containing 4, 2, 1, 0.5, and 0.25 μg/mL.

[4] = test system: multidrug-resistant clinical isolates of S. aureus; assay: MIC against multidrug-resistant clinical isolates of S. aureus; format: cell-based; details: Staphylococcus aureus
[5] = test system: multidrug-resistant clinical isolates of E. faecium; assay: MIC against multidrug-resistant clinical isolates of E. faecium; format: cell-based
[6] = test system: human foreskin fibroblasts (HFF-1); assay: Cell viability, Alamar Blue assay; format: cell-based; details: 72 h incubation, error SEM n = 2, read-out: IC50, Mammalian Toxicity in HFF-1
Procedure: Cell Culture. HFF-1 cells were obtained from ATCC. HFF-1 cells were grown in DMEM with 15% fetal bovine serum (Gemini Benchmark, Cat #100-106), 100 U/mL penicillin, and 100 μg/mL streptomycin. All cells were cultured at 37° C. in a 5% CO2 environment. Media was prepared by the University of Illinois School of Chemical Sciences Cell Media Facility.
Cell Viability. Cells were harvested, seeded in a 96 well-plate and allowed to adhere. Cells were treated with investigational compounds in DMSO (1% final concentration). Cells were incubated for 72 h before viability was assessed by the Alamar Blue Assay. Raptinal ([…]) was used as a dead control.

[7] = head-to-head with FA, 2×-32× the MIC

For `CC(=O)O[C@H]1C[C@@]2(C)[C@@H](C[C@@H](O)[C@H]3[C@@]4(C)CC[C@@H](O)[C@@H](C)[C@@H]4CC[C@@]32C)/C1=C(\CCC=C1CCOCC1)C(=O)O` [Compound 27, (Z)-2-((3R,4S,5S,8S,9S,10S,11R,13R,14S,16S)-16-acetoxy-3,11-dihydroxy-4,8,10,14-tetramethylhexadecahydro-17H-cyclopenta[a]phenanthren-17-ylidene)-5-(tetrahydro-4H-pyran-4-ylidene)pentanoic acid], the “Antibacterial activity relative to FA” value (S. aureus ATCC 29213 [1]) was “equipotent activity to FA”, the MIC (S. aureus ATCC 29213 [1]) was 0.125 µg/mL (≈ 0.224 µM) and the “Fold Change Increase in MIC with 50% Human Serum” value (S. aureus 29213) was 32X. For the same compound, the “Metabolic Stability in Mouse Liver Microsomes (percent remaining)” value [2] was 86 ± 5% and the “Resistance frequency relative to FA” value (S. aureus ATCC 29213 [3]; [7]) was “worse resistance frequency relative to FA”.

Work on `CN[C@H](CC(C)C)C(=O)N[C@H]1C(=O)N[C@@H](CC(N)=O)C(=O)N[C@H]2C(=O)N[C@H]3C(=O)N[C@H](C(=O)N[C@H](C(=O)O)c4cc(O)cc(O)c4-c4cc3ccc4O)[C@H](O)c3ccc(c(Cl)c3)Oc3cc2cc(c3O[C@@H]2O[C@H](CO)[C@@H](O)[C@H](O)[C@H]2O[C@H]2C[C@](C)(N)[C@H](O)[C@H](C)O2)Oc2ccc(cc2Cl)[C@H]1O` [Vancomycin, vancomycin] yielded an MIC ([4]; NRS3, S. aureus NRS3 (NARSA)) of 4 µg/mL (≈ 2.76 µM), an MIC ([4]; NRS4, S. aureus NRS4 (NARSA)) of 4 µg/mL (≈ 2.76 µM) and an MIC ([4]; NRS17, S. aureus NRS17 (NARSA)) of 8 µg/mL (≈ 5.52 µM). It also gave an MIC ([4]; NRS18, S. aureus NRS18 (NARSA)) of 4 µg/mL (≈ 2.76 µM), an MIC ([4]; NRS21, S. aureus NRS21 (NARSA)) of 4 µg/mL (≈ 2.76 µM) and an MIC ([4]; NRS22, S. aureus NRS22 (NARSA)) of 4 µg/mL (≈ 2.76 µM). For the same compound, the MIC ([4]; NRS23, S. aureus NRS23 (NARSA)) was 4 µg/mL (≈ 2.76 µM), the MIC ([4]; NRS24, S. aureus NRS24 (NARSA)) was 4 µg/mL (≈ 2.76 µM) and the MIC ([4]; NRS26, S. aureus NRS26 (NARSA)) was 2 µg/mL (≈ 1.38 µM). The MIC ([4]; NRS27, S. aureus NRS27 (NARSA)) was 4 µg/mL (≈ 2.76 µM), the MIC ([4]; NRS29, S. aureus NRS29 (NARSA)) was 2 µg/mL (≈ 1.38 µM) and the MIC ([4]; NRS51, S. aureus NRS51 (NARSA)) was 4 µg/mL (≈ 2.76 µM). For the same compound, the MIC ([4]; NRS68, S. aureus NRS68 (NARSA)) was 4 µg/mL (≈ 2.76 µM), the MIC ([4]; NRS73, S. aureus NRS73 (NARSA)) was 4 µg/mL (≈ 2.76 µM) and the MIC ([4]; NRS74, S. aureus NRS74 (NARSA)) was 8 µg/mL (≈ 5.52 µM). For the same compound, the MIC ([4]; NRS76, S. aureus NRS76 (NARSA)) was 4 µg/mL (≈ 2.76 µM), the MIC ([4]; NRS77, S. aureus NRS77 (NARSA), no noted resistance) was 1 µg/mL (≈ 0.69 µM) and the MIC ([4]; NRS382, S. aureus NRS382 (NARSA)) was 2 µg/mL (≈ 1.38 µM). It also gave an MIC ([4]; NRS383, S. aureus NRS383 (NARSA)) of 0.5 µg/mL (≈ 0.345 µM), an MIC ([4]; NRS384, S. aureus NRS384 (NARSA)) of 1 µg/mL (≈ 0.69 µM) and an MIC ([4]; S. aureus AR0561 (CDC)) of 1 µg/mL (≈ 0.69 µM). For the same compound, the MIC ([4]; S. aureus AR0562 (CDC)) was 2 µg/mL (≈ 1.38 µM), the MIC ([4]; S. aureus AR0563 (CDC)) was 1 µg/mL (≈ 0.69 µM) and the MIC ([4]; S. aureus AR0564 (CDC)) was 2 µg/mL (≈ 1.38 µM). For the same compound, the MIC ([4]; S. aureus AR0565 (CDC)) was 2 µg/mL (≈ 1.38 µM), the MIC ([4]; S. aureus AR0566 (CDC)) was 0.5 µg/mL (≈ 0.345 µM) and the MIC ([4]; S. aureus AR0567 (CDC)) was 1 µg/mL (≈ 0.69 µM). It also gave an MIC ([4]; S. aureus AR0568 (CDC)) of 0.5 µg/mL (≈ 0.345 µM), an MIC ([4]; S. aureus AR0570 (CDC)) of 1 µg/mL (≈ 0.69 µM) and an MIC ([5]; Enterococcus faecium, E. faecium AR0572 (CDC)) of 512 µg/mL (≈ 353 µM). The MIC ([5]; Enterococcus faecium, E. faecium AR0574 (CDC)) was 0.5 µg/mL (≈ 0.345 µM), the MIC ([5]; Enterococcus faecium, E. faecium AR0575 (CDC)) was 512 µg/mL (≈ 353 µM) and the MIC ([5]; Enterococcus faecium, E. faecium AR0576 (CDC)) was 1 µg/mL (≈ 0.69 µM). It also gave an MIC ([5]; Enterococcus faecium, E. faecium AR0578 (CDC)) of 0.5 µg/mL (≈ 0.345 µM), an MIC ([5]; Enterococcus faecium, E. faecium AR0579 (CDC)) of 0.5 µg/mL (≈ 0.345 µM) and an MIC ([5]; VRE with high levels of vancomycin resistance) of 512 µg/mL (≈ 353 µM).

In the case of `CC(=O)O[C@H]1C[C@@]2(C)[C@@H](C[C@@H](O)[C@H]3[C@@]4(C)CC[C@@H](O)[C@@H](C)[C@@H]4CC[C@@]32C)/C1=C(\CCCC(C)C)C(=O)O` [Compound 28, (Z)-2-((3R,4S,5S,8S,9S,10S,11R,13R,14S,16S)-16-acetoxy-3,11-dihydroxy-4,8,10,14-tetramethylhexadecahydro-17H-cyclopenta[a]phenanthren-17-ylidene)-6-methylheptanoic acid], the “Antibacterial activity relative to FA” value (S. aureus ATCC 29213 [1]) is reported as “modest decreases in potency relative to FA”.

For `CC(=O)O[C@H]1C[C@@]2(C)[C@@H](C[C@@H](O)[C@H]3[C@@]4(C)CC[C@@H](O)[C@@H](C)[C@@H]4CC[C@@]32C)/C1=C(\CCC=C(F)F)C(=O)O` [Compound 19, (Z)-2-((3R,4S,5S,8S,9S,10S,11R,13R,14S,16S)-16-acetoxy-3,11-dihydroxy-4,8,10,14-tetramethylhexadecahydro-17H-cyclopenta[a]phenanthren-17-ylidene)-6,6-difluorohex-5-enoic acid], the “Antibacterial activity relative to FA” value (S. aureus ATCC 29213 [1]) was “modest decreases in potency relative to FA”.

For `CC(=O)O[C@H]1C[C@@]2(C)[C@@H](C[C@@H](O)[C@H]3[C@@]4(C)CC[C@@H](O)[C@@H](C)[C@@H]4CC[C@@]32C)/C1=C(\CCC=C1CCCCC1)C(=O)O` [Compound 26, (Z)-2-((3R,4S,5S,8S,9S,10S,11R,13R,14S,16S)-16-acetoxy-3,11-dihydroxy-4,8,10,14-tetramethylhexadecahydro-17H-cyclopenta[a]phenanthren-17-ylidene)-5-cyclohexylidenepentanoic acid], the IC50 [6] was 53 ± 4 µM, the IC50 ([6]; Homo sapiens, HFF-1, 72 h) was greater than 50 µM and the “Antibacterial activity relative to FA” value (S. aureus ATCC 29213 [1]) was “equipotent activity to FA”. For the same compound, the MIC (S. aureus ATCC 29213 [1]) was 0.125 µg/mL (≈ 0.225 µM), the “Fold Change Increase in MIC with 50% Human Serum” value (S. aureus 29213) was 16X and the “Metabolic Stability in Mouse Liver Microsomes (percent remaining)” value [2] was 61 ± 1%. The “Resistance frequency relative to FA” value (S. aureus ATCC 29213 [3]; [7]) was “improvement in resistance frequency relative to FA” and the “Resistance frequency relative to FA” value (S. aureus ATCC 29213 [3]; only at 32× the MIC) was “improvement”.

For `CC(=O)O[C@H]1C[C@@]2(C)[C@@H](C[C@@H](O)[C@H]3[C@@]4(C)CC[C@@H](O)[C@@H](C)[C@@H]4CC[C@@]32C)/C1=C(\CCC=C(Cl)Cl)C(=O)O` [Compound 15, (Z)-2-((3R,4S,5S,8S,9S,10S,11R,13R,14S,16S)-16-acetoxy-3,11-dihydroxy-4,8,10,14-tetramethylhexadecahydro-17H-cyclopenta[a]phenanthren-17-ylidene)-6,6-dichlorohex-5-enoic acid], the “Antibacterial activity relative to FA” value (S. aureus ATCC 29213 [1]) was “modest decreases in potency relative to FA”.

In the case of `C=CCC/C(C(=O)O)=C1/[C@@H](OC(C)=O)C[C@@]2(C)[C@H]1C[C@@H](O)[C@H]1[C@@]3(C)CC[C@@H](O)[C@@H](C)[C@@H]3CC[C@@]12C` [Compound 21], the “Antibacterial activity relative to FA” value (S. aureus ATCC 29213 [1]) is reported as “modest decreases in potency relative to FA”.

In the case of `CC(=O)O[C@H]1C[C@@]2(C)[C@@H](C[C@@H](O)[C@H]3[C@@]4(C)CC[C@@H](O)[C@@H](C)[C@@H]4CC[C@@]32C)/C1=C(\CCC=C(I)I)C(=O)O` [Compound 17, (Z)-2-((3R,4S,5S,8S,9S,10S,11R,13R,14S,16S)-16-acetoxy-3,11-dihydroxy-4,8,10,14-tetramethylhexadecahydro-17H-cyclopenta[a]phenanthren-17-ylidene)-6,6-diiodohex-5-enoic acid], the “Antibacterial activity relative to FA” value (S. aureus ATCC 29213 [1]) is reported as “modest decreases in potency relative to FA”.
